In US20200405752A1, “ANTITUMOR AGENT, ANTITUMOR EFFECT ENHANCER, AND ANTITUMOR KIT” (FUJIFILM Corporation, priority 2018, published 2020):
Where two headings read alike, the source gives them in different places.

Tests used:
[1] = test system: human ovarian cancer cell line SK-OV-3; assay: Cell viability (CellTiter Glo) of SK-OV-3 in combination with cisplatin or carboplatin; format: cell-based; details: for viability at 0.001 µM / viability at 0.003 µM / viability at 0.01 µM / viability at 0.03 µM / viability at 0.1 µM / viability at 0.3 µM / viability at 1 µM / viability at 3 µM / viability at 10 µM / IC50: Homo sapiens; for viability at 0.001 µM / viability at 0.003 µM / viability at 0.01 µM / viability at 0.03 µM / viability at 0.1 µM / viability at 0.3 µM / viability at 1 µM / viability at 3 µM / viability at 10 µM: SK-OV-3, 72 h, 3 days; for viability at 0.001 µM: test substance 1 nM; for viability at 0.003 µM: test substance 3 nM; for viability at 0.01 µM: test substance 10 nM; for viability at 0.03 µM: test substance 30 nM; for viability at 0.1 µM: test substance 100 nM; for viability at 0.3 µM: test substance 300 nM; for viability at 1 µM: test substance 1000 nM; for viability at 3 µM: test substance 3000 nM; for viability at 10 µM: test substance 10000 nM; for IC50: SK-OV-3, SK-OV-3; for CI: SK-OV-3 Cell
Excerpt: (§1) On the combinational effect of the embodiment of the invention, the results of evaluation using a combination index (CI) which is a quantitative index of the combinational effect are shown. The CI can be calculated by the following equation according to Cancer Research, 2010, Vol. 70, pp. 440 to 446.
(§2) That is, in a case where the drugs to be used in combination are drug 1 and drug 2, the CI at a certain drug concentration is
(§3) CI={(cell viability in case of using drug 1 and drug 2 in combination)/100}/{[(cell viability in case of using drug 1)/100]×[(cell viability in case of using drug 2)/100]}
(§4) Evaluation of antitumor activity against human ovarian cancer cell lines ES-2 and SK-OV-3 in combination with cisplatin and carboplatin
(§5) Furthermore, the antitumor activity against human ovarian cancer-derived cell lines ES-2 and SK-OV-3 in combination with cisplatin and carboplatin was evaluated in the same manner as in Test Example 1.
(§6) Gemcitabine, cisplatin, carboplatin, and methanesulfonate of Compound A were used as test substances.
(§7) Gemcitabine hydrochloride (manufactured by Plantex Co., Ltd.) dissolved in DMSO was used as gemcitabine. Cisplatin (Cat. #039-20091, manufactured by Wako Pure Chemical Industries, Ltd.) and carboplatin (Cat. #C2043, manufactured by Tokyo Chemical Industry Co., Ltd.), each of which dissolved in McCoy's 5a medium (Cat. #16600-082, manufactured by Thermo Fisher Scientific Inc.) supplemented with 1% serum (Cat. #10437-028, manufactured by Thermo Fisher Scientific Inc.), were used as cisplatin and carboplatin, respectively.
(§8) Human ovarian cancer cell line ES-2 and SK-OV-3 cells were subcultured in 10% serum-supplemented medium. During this test, all cell cultures were carried out in a CO2 incubator (set to 37° C. and 5% CO2, saturated with water vapor). ES-2 cells were diluted with 10% serum-supplemented medium to a cell density of 10000 cells/well/100 μL and SK-OV-3 cells were diluted with 10% serum-supplemented medium to a cell density of 15000 cells/well/100 μL, and then seeded on a 96-well plate. On the next day, the culture supernatant of each well was discarded, followed by washing twice with 150 μL of 1% serum-supplemented medium, and 100 μL of 1% serum-supplemented medium was added thereto, followed by culturing for 3 days.
The methanesulfonate of Compound A and gemcitabine were dissolved in DMSO to prepare 100 mmol/L DMSO solutions thereof. The thus-prepared DMSO solutions were diluted sequentially with DMSO to prepare DMSO solutions having a final treatment concentration of 1000-fold dilution. […] […] Compound A and gemcitabine were used with a maximum concentration of 10 μmol/L at a common ratio of 1/3 and 9 concentrations in combination with cisplatin or Carboplatin.
(§9) 20 μL of Compound A or gemcitabine diluted with the cisplatin solution (60 μmol/L) or the Carboplatin solution (600 μmol/L) was added to each well. In addition, a group in which only a solvent containing no drug was added to wells in which cells were seeded (positive control), and a group in which only a solvent containing no drug was added to wells containing only a medium (negative control) were provided. All groups were set to n=3 well.
The cells were cultured for 3 days after the addition of the drug, and the cell viability was evaluated using a CellTiter Glo (registered trademark) Reagent (Cat. #G7570, manufactured by Promega Corporation) with the intracellular ATP level as an index. The concentration that inhibits cell viability by 50% (IC50 value) was calculated using XLFit software Ver.3 (registered trademark, manufactured by CTC Laboratory Systems Corporation).
The cell viability of each well was determined with the luminescence signal level of the negative control being 0% cell viability and the luminescence signal level of the positive control being 100% cell viability. The average value and standard deviation of the cell viability of each treatment group were calculated to prepare Tables 3 to 6.

[2] = test system: human ovarian cancer cell line ES-2; assay: Cell viability (CellTiter Glo) of ES-2 in combination with cisplatin or carboplatin; format: cell-based; details: for CI: ES-2 Cell; for viability at 0.001 µM / viability at 0.003 µM / viability at 0.01 µM / viability at 0.03 µM / viability at 0.1 µM / viability at 0.3 µM / viability at 1 µM / viability at 3 µM / viability at 10 µM / IC50: Homo sapiens; for viability at 0.001 µM / viability at 0.003 µM / viability at 0.01 µM / viability at 0.03 µM / viability at 0.1 µM / viability at 0.3 µM / viability at 1 µM / viability at 3 µM / viability at 10 µM: 72 h, 3 days; for viability at 0.001 µM: test substance 1 nM; for viability at 0.003 µM: test substance 3 nM; for viability at 0.01 µM: test substance 10 nM; for viability at 0.03 µM: test substance 30 nM; for viability at 0.1 µM: test substance 100 nM; for viability at 0.3 µM: test substance 300 nM; for viability at 1 µM: test substance 1000 nM; for viability at 3 µM: test substance 3000 nM; for viability at 10 µM: test substance 10000 nM
Excerpt: as §1, §2, §3, §4, §5, §6, §7, §8
The methanesulfonate of Compound A and gemcitabine were dissolved in DMSO to prepare 100 mmol/L DMSO solutions thereof. The thus-prepared DMSO solutions were diluted sequentially with DMSO to prepare DMSO solutions having a final treatment concentration of 1000-fold dilution. Cisplatin and carboplatin were dissolved in 1% serum-supplemented medium to prepare a cisplatin solution 60 μmol/L and a carboplatin solution 600 μmol/L, respectively. The DMSO diluted solutions of Compound A and gemcitabine were diluted with the cisplatin solution (60 μmol/L) or the Carboplatin solution (600 μmol/L) to prepare treatment liquids having a final treatment concentration of 6-fold dilution. Compound A and gemcitabine were used with a maximum concentration of 10 μmol/L at a common ratio of 1/3 and 9 concentrations in combination with cisplatin or Carboplatin.
as §9
The cells were cultured for 3 days after the addition of the drug, and the cell viability was evaluated using a CellTiter Glo (registered trademark) Reagent (Cat. #G7570, manufactured by Promega Corporation) with the intracellular ATP level as an index. […]

[3] = orally administered to mice; cited from earlier work
[4] = test system: pancreatic cancer patient; details: cited from earlier work
[5] = SK-OV-3, with carboplatin 30 μmol/L
[6] = SK-OV-3, with cisplatin 10 μmol/L
[7] = used in combination with cisplatin (10 μmol/L, Table 4)
[8] = ES-2, with carboplatin 100 μmol/L
[9] = ES-2, used in combination with carboplatin (100 μmol/L, Table 6)
[10] = ES-2, used in combination with cisplatin (10 μmol/L, Table 3)

Nc1ccn([C@@H]2S[C@H](CO)[C@@H](O)[C@@H]2F)c(=O)n1 [Compound A, 1-(2-deoxy-2-fluoro-4-thio-β-D-arabinofuranosyl)cytosine]
viability at 0.001 µM [1, 5]: 90% | viability at 0.003 µM [1, 5]: 88% | viability at 0.01 µM [1, 5]: 84% | viability at 0.03 µM [1, 5]: 82% | viability at 0.1 µM [1, 5]: 80% | viability at 0.3 µM [1, 5]: 73% | viability at 1 µM [1, 5]: 41% | viability at 3 µM [1, 5]: 20% | viability at 10 µM [1, 5]: 17% | viability at 0.001 µM [1, 6]: 83% | viability at 0.003 µM [1, 6]: 82% | viability at 0.01 µM [1, 6]: 81% | viability at 0.03 µM [1, 6]: 76% | viability at 0.1 µM [1, 6]: 43% | viability at 0.3 µM [1, 6]: 14% | viability at 1 µM [1, 6]: 11% | viability at 3 µM [1, 6]: 10% | viability at 10 µM [1, 6]: 10% | IC50 ([1]; used in combination with carboplatin (30 μmol/L, Table 5)): 676 nM | IC50 [1, 7]: 82.2 nM | CI ([1]; combination with Carboplatin): 0.3 | CI ([1]; combination with Cisplatin): 0.2 | CI ([2]; combination with Carboplatin): 0.4 | CI ([2]; combination with Cisplatin): 0.3 | viability at 0.001 µM [2, 8]: 73% | viability at 0.003 µM [2, 8]: 70% | viability at 0.01 µM [2, 8]: 69% | viability at 0.03 µM [2, 8]: 57% | viability at 0.1 µM [2, 8]: 36% | viability at 0.3 µM [2, 8]: 28% | viability at 1 µM [2, 8]: 24% | viability at 3 µM [2, 8]: 22% | viability at 10 µM [2, 8]: 21% | viability at 0.001 µM ([2]; ES-2, with cisplatin 10 μmol/L): 78% | viability at 0.003 µM ([2]; ES-2, with cisplatin 10 μmol/L): 78% | viability at 0.01 µM ([2]; ES-2, with cisplatin 10 μmol/L): 77% | viability at 0.03 µM ([2]; ES-2, with cisplatin 10 μmol/L): 68% | viability at 0.1 µM ([2]; ES-2, with cisplatin 10 μmol/L): 37% | viability at 0.3 µM ([2]; ES-2, with cisplatin 10 μmol/L): 26% | viability at 1 µM ([2]; ES-2, with cisplatin 10 μmol/L): 23% | viability at 3 µM ([2]; ES-2, with cisplatin 10 μmol/L): 23% | viability at 10 µM ([2]; ES-2, with cisplatin 10 μmol/L): 21% | IC50 [2, 9]: 46 nM | IC50 [2, 10]: 63.2 nM | antitumor activity [3]: potent antitumor activity

Nc1ccn([C@@H]2O[C@H](CO)[C@@H](O)C2(F)F)c(=O)n1 [Gemcitabine]
median survival time ([4]; combination with cisplatin): 7.5 months | response rate ([4]; combination with cisplatin): 11.5% | median survival time ([4]; combination with oxaliplatin): 5.7 months | response rate ([4]; combination with oxaliplatin): 9% | viability at 0.001 µM [1, 5]: 90% | viability at 0.003 µM [1, 5]: 90% | viability at 0.01 µM [1, 5]: 88% | viability at 0.03 µM [1, 5]: 86% | viability at 0.1 µM [1, 5]: 83% | viability at 0.3 µM [1, 5]: 82% | viability at 1 µM [1, 5]: 81% | viability at 3 µM [1, 5]: 80% | viability at 10 µM [1, 5]: 76% | viability at 0.001 µM [1, 6]: 82% | viability at 0.003 µM [1, 6]: 84% | viability at 0.01 µM [1, 6]: 84% | viability at 0.03 µM [1, 6]: 83% | viability at 0.1 µM [1, 6]: 83% | viability at 0.3 µM [1, 6]: 83% | viability at 1 µM [1, 6]: 79% | viability at 3 µM [1, 6]: 59% | viability at 10 µM [1, 6]: 30% | IC50 [1, 7]: 3800 nM | IC50 value ([1]; SK-OV-3, used in combination with carboplatin (30 μmol/L, Table 5)): could not be calculated | CI ([1]; combination with Carboplatin): 1.0 | CI ([1]; combination with Cisplatin): 1.1 | IC50 value [2, 10]: could not be calculated | CI ([2]; combination with Carboplatin): 0.9 | CI ([2]; combination with Cisplatin): 1.1 | viability at 0.001 µM [2, 8]: 76% | viability at 0.003 µM [2, 8]: 74% | viability at 0.01 µM [2, 8]: 71% | viability at 0.03 µM [2, 8]: 71% | viability at 0.1 µM [2, 8]: 72% | viability at 0.3 µM [2, 8]: 71% | viability at 1 µM [2, 8]: 69% | viability at 3 µM [2, 8]: 62% | viability at 10 µM [2, 8]: 48% | viability at 0.001 µM ([2]; ES-2, with cisplatin 10 μmol/L): 74% | viability at 0.003 µM ([2]; ES-2, with cisplatin 10 μmol/L): 78% | viability at 0.01 µM ([2]; ES-2, with cisplatin 10 μmol/L): 78% | viability at 0.03 µM ([2]; ES-2, with cisplatin 10 μmol/L): 79% | viability at 0.1 µM ([2]; ES-2, with cisplatin 10 μmol/L): 79% | viability at 0.3 µM ([2]; ES-2, with cisplatin 10 μmol/L): 79% | viability at 1 µM ([2]; ES-2, with cisplatin 10 μmol/L): 74% | viability at 3 µM ([2]; ES-2, with cisplatin 10 μmol/L): 65% | viability at 10 µM ([2]; ES-2, with cisplatin 10 μmol/L): 50% | IC50 [2, 9]: ≥ 10000 nM
